How the values were obtained:
HIF-1A = HIF-1A expression by Western blot in PC-3 and LNCaP cells; type: cell-based, human; settings: 25 µM
Description: To further confirm the compound 8c-induced activation of AMPK, PC-3 and LNCaP cells were incubated with the compound for 1 h and 24 hours in the presence of the AMPK inhibitor Dorsomorphin. […] Accordingly, ACC phosphorylation was increased at 1 h and 24 h and prevented by Dorsomorphin in both cell lines. AMPK inhibits mTORC1 through phosphorylation of Raptor on two well-conserved serine residues (ser722 and ser792) inducing cell-cycle arrest in response to an energy stress. To further support the 8c-induced AMPK activation, we determined Raptor phosphorylation on Ser792 in prostate cells.
Figure 5 AMPK activation by compound 8c in prostate cancer cells. (A) PC-3 and LNCaP cells were treated with vehicle, 25 µM compound 8c, 25 µM compound 8c + 5 μM Dorsomorphin (8c + D) or 5 μM Dorsomorphin (D), for 1 hour or 24 hours and levels of the phosphorylated AMPK (pAMPK), phosphorylated ACC (pACC), phosphorylated Raptor (pRaptor) forms and HIF1α were determined by Western blot. Upper panel, representative Western blot of three different experiments. β-tubulin (β-Tub) serves as a loading control. […] (B) Cell viability monitored by MTT assay in PC-3 and LNCaP cells treated with vehicle, 25 µM and 50 μM compound 8c alone or in the presence of 5 μM Dorsomorphin or transfected with control siRNA (siC) or α1AMPK-selective siRNA (siAMPK). […]

PC-3 and LNCaP cells = assay: MTT cell viability in PC-3 and LNCaP cells under AMPK inhibition or knocking down; type: cell-based, human; settings: α1AMPK-selective siRNA
Description: Figure 5 AMPK activation by compound 8c in prostate cancer cells. (A) PC-3 and LNCaP cells were treated with vehicle, 25 µM compound 8c, 25 µM compound 8c + 5 μM Dorsomorphin (8c + D) or 5 μM Dorsomorphin (D), for 1 hour or 24 hours and levels of the phosphorylated AMPK (pAMPK), phosphorylated ACC (pACC), phosphorylated Raptor (pRaptor) forms and HIF1α were determined by Western blot. Upper panel, representative Western blot of three different experiments. β-tubulin (β-Tub) serves as a loading control. Lower panel, densitometric analyses of bands represented as the mean of the ratio pAMPK/AMPK or pACC/ACC. (B) Cell viability monitored by MTT assay in PC-3 and LNCaP cells treated with vehicle, 25 µM and 50 μM compound 8c alone or in the presence of 5 μM Dorsomorphin or transfected with control siRNA (siC) or α1AMPK-selective siRNA (siAMPK). (C) LNCaP cells were treated with vehicle, 25 µM compound 8c, 25 µM compound 8c + 5 μM Dorsomorphin (8c + D) or 5 μM Dorsomorphin (D), for 24 hours and levels of Androgen Receptor (AR), Prostate specific antigen (PSA) and Prostate specific membrane antigen (PSMA) were determined by Western blot.Values were normalized with the control and represent the mean ± SD of at least three independent experiments. *p < 0.05 and **p < 0.01 compared to control and ^#p < 0.05 and ^##p < 0.01 compared with 8c-treated group by the Student’s t-test. […]

## O=C1Nc2ccccc2C1(F)Cc1ccc(-c2ccccc2)o1 (centres unmarked) [Compound 8c, 3-fluoro-3-((5-phenylfuran-2-yl)methyl)indolin-2-one]
HIF-1A
  expression of HIF-1A: expression of HIF-1A was decreased
PC-3 and LNCaP cells
  cell death with AMPK silencing by specific siRNA: prevented 8c-induced cell death

— article PMC5847527, “Identification of a novel 2-oxindole fluorinated derivative as in vivo antitumor agent for prostate cancer acting via AMPK activation” (Scientific Reports, 2018)
